The results in this text go back to patent US6444849B1, “Amide derivatives” (Mitsubishi Chemical Corporation, priority 1997, dated 2002).

The nature of one data set: in vivo. Particulars: both sexes, rat, oral, suspended in 0.5% CMC-Na aqueous solution, SD male and female rats, observed for seven days.
The next data set relates to Campylobacter jejuni. As to the kind of experiment: Measurement of anti-Campylobacter jejuni activity (MIC). The format is cell-based. Particulars: method similar to Test Example 1. As to the method: Brain heart infusion culture medium containing 10% fetal bovine serum (Difco) (5 ml) was taken in a test tube, and then the medium was inoculated with Helicobacter pylori strain 31A isolated from human (obtained from the Metropolitan Health Institute, Microorganism Department, First Laboratory of Bacteria). Cultivation was carried out under slightly aerobic condition (5% oxygen, 10% carbon dioxide, 85% nitrogen) at 37° C. for 48 hours with shaking.
The culture was then inoculated to brain heart infusion medium containing 10% fetal bovine serum at a ratio of 5%, and added with a test compound dissolved in 10% dimethyl sulfoxide. Cultivation was carried out under slightly aerobic condition at 37° C. for 48 hours with shaking, and then growth of Helicobacter pylori was examined. […] From the results shown in Tables 3 and 4, it can be understood that the compounds of the present invention have potent inhibitory activity against Helicobacter pylori.
According to a aimiar method to that of Test Example 1, inhibitory activity of the compound of the present invention against Campylobacter jejune was determined. As a result, MIC of the compound of Example 31 was 0.008 μg/ml. From the result, it can be understood that the compound of the present invention has potent inhibitory activity against Campylobacter jejumni.

SMILES strings stand for the structures. ≈ marks a conversion by molar mass, not a printed value.

Regarding `CNC(=O)c1cccc(NC(=O)Cc2cccc3ccccc23)c1` [Example 30, N-(3-Methylcarbamoylphenyl)-1-naphthylacetamide], the LD50 – broadly, the dose expected to kill half of the subjects tested – in the data set “in vivo” is ≥ 2000 mg/kg. Consider `CNC(=O)c1cccc(NC(=O)Cc2ccc3ccccc3c2)c1` [Example 31, N-(3-Methylcarbamoylphenyl)-2-naphthylacetnide], for which the MIC (commonly the lowest concentration found to suppress growth) in the data set with Campylobacter jejuni is 8 ng/mL (≈ 0.0251 µM).
